The values below come from publication PMC11237924, “A neutral invertase controls cell division besides hydrolysis of sucrose for nutrition during germination and seed setting in rice” (iScience, 2024).

Substitutions are numbered along the chain they refer to.

One may read the Km as the concentration of substrate that gives half-maximal velocity.

Series [1] deals with T1, OsNIN8 (MBP-OsNIN8), neutral invertase 8 (Oryza sativa, UniProt Q69T31, D275A).
T1 construct: gene CINV1; N-terminal MBP fusion (pETMALc-H), tag kept, expressed in E. coli BL21(DE3), amylose resin purified
T1 sequence (Q69T31 1-562 D275A): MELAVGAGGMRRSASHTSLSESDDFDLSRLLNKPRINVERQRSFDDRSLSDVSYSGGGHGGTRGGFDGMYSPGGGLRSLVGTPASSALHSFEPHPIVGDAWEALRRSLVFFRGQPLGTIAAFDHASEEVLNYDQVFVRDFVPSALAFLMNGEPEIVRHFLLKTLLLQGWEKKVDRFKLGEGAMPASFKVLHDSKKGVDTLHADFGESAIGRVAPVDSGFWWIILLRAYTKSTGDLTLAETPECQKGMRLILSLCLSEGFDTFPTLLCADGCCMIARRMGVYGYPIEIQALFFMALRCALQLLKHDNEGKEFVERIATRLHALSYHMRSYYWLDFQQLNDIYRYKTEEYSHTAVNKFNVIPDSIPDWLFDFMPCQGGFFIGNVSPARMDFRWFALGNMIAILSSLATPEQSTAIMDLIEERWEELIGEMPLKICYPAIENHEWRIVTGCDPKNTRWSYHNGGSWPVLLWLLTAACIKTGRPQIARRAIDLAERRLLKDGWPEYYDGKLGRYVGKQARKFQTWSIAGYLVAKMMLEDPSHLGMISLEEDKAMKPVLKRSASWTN
Briefly: ITC incremental titration. Format: binding. The note with it: 25 °C, 0.1 mM protein, 10 mM sucrose in syringe; catalytic-residue mutant.

The target of series [2] is T2, OsNIN8 (MBP-OsNIN8), neutral invertase 8 (Oryza sativa, UniProt Q69T31, E501A).
T2 construct: gene CINV1; N-terminal MBP fusion (pETMALc-H), tag kept, expressed in E. coli BL21(DE3), amylose resin purified
T2 sequence (Q69T31 1-562 E501A): T1 sequence (Q69T31 1-562 D275A) with A275D, E501A
Kind of series: ITC incremental titration. Format: binding. The note with it: 25 °C, 0.1 mM protein, 10 mM sucrose in syringe; catalytic-residue mutant.

For series [3], the target named is T3, OsNIN8 (MBP-OsNIN8), neutral invertase 8 (Oryza sativa, UniProt Q69T31, D275A/E501A).
T3 construct: gene CINV1; N-terminal MBP fusion (pETMALc-H), tag kept, expressed in E. coli BL21(DE3), amylose resin purified
T3 sequence (Q69T31 1-562 D275A/E501A): T1 sequence (Q69T31 1-562 D275A) with E501A
Briefly: ITC incremental titration. To be noted: 25 °C, 0.1 mM protein, 10 mM sucrose in syringe; catalytic-residue mutant. Format: binding.

Series [4] has as its target T4, OsNIN8 (MBP-OsNIN8), neutral invertase 8 (Oryza sativa, UniProt Q69T31, G461R).
T4 construct: gene CINV1; N-terminal MBP fusion (pETMALc-H), tag kept, expressed in E. coli BL21(DE3), amylose resin purified
T4 sequence (Q69T31 1-562 G461R): T1 sequence (Q69T31 1-562 D275A) with A275D, G461R
Kind of series: pulldown on amylose magnetic beads with GC-TOF MS; ITC titration. It is filed as binding. The note with it: 50 mM potassium phosphate pH 6.4, 25 °C; OsNIN8m, retains residual sucrose hydrolysis.

Substrate in series [5]: OC[C@H]1O[C@@](CO)(O[C@H]2O[C@H](CO)[C@@H](O)[C@H](O)[C@H]2O)[C@@H](O)[C@@H]1O
Briefly: purified protein. To be noted: 50 mM potassium phosphate pH 6.4, fit over 0-20 mM sucrose (substrate inhibition above 20 mM). Format: biochemical, Oryza sativa.

`OC[C@H]1O[C@@](CO)(O[C@H]2O[C@H](CO)[C@@H](O)[C@H](O)[C@H]2O)[C@@H](O)[C@@H]1O` [Sucrose]: the ITC incremental titration result in series [1] is listed as “all had not hydrolytic activity on sucrose, showed their bindings to sucrose were exotherm”; in series [2], “all had not hydrolytic activity on sucrose, showed their bindings to sucrose were exotherm”; in series [3], “all had not hydrolytic activity on sucrose, showed their bindings to sucrose were exotherm”. Also, the “pulldown on amylose magnetic beads with GC-TOF MS; ITC titration” value in series [4] was “OsNIN8m bound more sucrose than OsNIN8 did”.

B1: OsNIN8 (MBP-OsNIN8), neutral invertase 8 (Oryza sativa Japonica Group) (protein)
chain: T1 sequence (Q69T31 1-562 D275A) with A275D
notes: N-terminal MBP fusion (pETMALc-H), tag kept, expressed in E. coli BL21(DE3), amylose resin purified
For the molecule B1, in series [5], the Km amounted to 2718 ± 347 µM.
